Results: ChEMBL document CHEMBL1177725, “6-(3,4-dichlorophenyl)-1-[(methyloxy)methyl]-3-azabicyclo[4.1.0]heptane: a new potent and selective triple reuptake inhibitor” (J Med Chem, 2010)

Assays:
Type in all cases: cell-based
[1] = biological target: Sodium-dependent noradrenaline transporter (Homo sapiens, UniProt P23975); assay: Displacement of [N-methyl-3H]nisoxetine from human recombinant NET expressed in pig LLCPK cells after 2 hrs by liquid scintillation counting
[2] = biological target: Sodium-dependent dopamine transporter (Homo sapiens, UniProt Q01959); assay: Displacement of [N-methyl-3H]WIN-35428 from human recombinant DAT expressed in pig LLCPK cells after 2 hrs by liquid scintillation counting
[3] = biological target: Sodium-dependent serotonin transporter (Homo sapiens, UniProt P31645); assay: Displacement of [N-methyl-3H]citalopram from human recombinant SERT expressed in pig LLCPK cells after 2 hrs by liquid scintillation counting
Chain of Sodium-dependent serotonin transporter (P31645 whole entry): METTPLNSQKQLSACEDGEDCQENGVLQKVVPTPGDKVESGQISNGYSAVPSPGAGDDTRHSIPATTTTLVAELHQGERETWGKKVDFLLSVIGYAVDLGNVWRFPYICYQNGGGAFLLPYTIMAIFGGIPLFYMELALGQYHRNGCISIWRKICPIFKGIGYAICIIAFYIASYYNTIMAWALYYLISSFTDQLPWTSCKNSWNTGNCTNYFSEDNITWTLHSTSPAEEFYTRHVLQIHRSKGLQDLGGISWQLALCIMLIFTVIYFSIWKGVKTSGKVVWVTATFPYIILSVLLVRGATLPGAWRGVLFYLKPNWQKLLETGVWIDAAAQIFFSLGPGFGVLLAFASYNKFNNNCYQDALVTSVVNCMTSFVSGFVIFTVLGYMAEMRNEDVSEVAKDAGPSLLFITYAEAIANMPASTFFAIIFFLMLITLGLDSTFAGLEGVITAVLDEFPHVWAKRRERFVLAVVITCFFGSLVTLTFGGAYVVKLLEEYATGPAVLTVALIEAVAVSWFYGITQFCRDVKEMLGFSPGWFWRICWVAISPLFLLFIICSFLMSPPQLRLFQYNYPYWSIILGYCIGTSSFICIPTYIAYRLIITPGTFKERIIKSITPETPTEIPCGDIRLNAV

Chain of Sodium-dependent dopamine transporter (Q01959 whole entry): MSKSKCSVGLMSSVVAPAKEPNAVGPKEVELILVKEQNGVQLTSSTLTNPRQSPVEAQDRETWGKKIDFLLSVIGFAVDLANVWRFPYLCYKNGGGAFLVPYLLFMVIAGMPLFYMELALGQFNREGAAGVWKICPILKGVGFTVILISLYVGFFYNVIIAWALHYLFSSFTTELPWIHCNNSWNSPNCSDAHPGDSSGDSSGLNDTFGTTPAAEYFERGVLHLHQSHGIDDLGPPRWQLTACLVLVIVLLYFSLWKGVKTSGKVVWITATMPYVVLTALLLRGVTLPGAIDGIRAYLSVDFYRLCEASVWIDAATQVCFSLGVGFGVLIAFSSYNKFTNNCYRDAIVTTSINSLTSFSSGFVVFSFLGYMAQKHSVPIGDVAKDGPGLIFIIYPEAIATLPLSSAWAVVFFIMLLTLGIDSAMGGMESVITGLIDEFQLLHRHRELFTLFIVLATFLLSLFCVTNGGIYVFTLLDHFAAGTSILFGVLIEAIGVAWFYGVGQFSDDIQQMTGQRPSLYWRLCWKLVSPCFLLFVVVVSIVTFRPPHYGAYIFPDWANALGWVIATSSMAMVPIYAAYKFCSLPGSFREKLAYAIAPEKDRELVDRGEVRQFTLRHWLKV
Chain of Sodium-dependent noradrenaline transporter (P23975 whole entry): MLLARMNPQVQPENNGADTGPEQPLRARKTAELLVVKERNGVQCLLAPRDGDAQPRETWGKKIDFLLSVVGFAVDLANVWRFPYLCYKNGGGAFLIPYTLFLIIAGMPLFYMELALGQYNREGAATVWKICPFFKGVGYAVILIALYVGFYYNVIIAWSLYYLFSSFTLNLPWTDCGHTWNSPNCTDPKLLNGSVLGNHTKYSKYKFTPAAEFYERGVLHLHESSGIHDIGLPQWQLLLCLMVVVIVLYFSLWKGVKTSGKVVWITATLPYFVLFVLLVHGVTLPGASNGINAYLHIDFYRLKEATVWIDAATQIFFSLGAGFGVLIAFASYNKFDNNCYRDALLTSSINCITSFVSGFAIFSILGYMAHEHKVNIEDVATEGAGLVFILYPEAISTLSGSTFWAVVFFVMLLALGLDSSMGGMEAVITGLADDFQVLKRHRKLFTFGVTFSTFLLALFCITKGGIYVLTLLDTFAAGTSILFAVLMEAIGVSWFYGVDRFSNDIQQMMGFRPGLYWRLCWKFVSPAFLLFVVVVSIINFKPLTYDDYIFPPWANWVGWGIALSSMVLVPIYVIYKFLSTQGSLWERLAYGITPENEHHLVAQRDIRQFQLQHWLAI

COC[C@@]12CN(C)CC[C@]1(c1ccc(Cl)c(Cl)c1)C2
Ki [1]: 794 nM | Ki [2]: 31.6 nM | Ki [3]: 12.6 nM

COC[C@@]12CN(C(C)C)CC[C@]1(c1ccc(Cl)c(Cl)c1)C2
Ki [1]: 5010 nM | Ki [2]: 1260 nM | Ki [3]: 631 nM

Clc1ccc([C@@H]2CCNC[C@@]23CCCOC3)cc1Cl
Ki [1]: 3.98 nM | Ki [2]: 12.6 nM | Ki [3]: 0.316 nM

C=CCC(OC)[C@]12CNCC[C@]1(c1ccc(Cl)c(Cl)c1)C2 (mixture of isomers; form 2) [6-(3,4-DICHLOROPHENYL)-1-[1-(METHYLOXY)-3-BUTEN-1-YL]-3-AZABICYCLO[4.1.0]HEPTANE (DIASTEREOMERIC MIX)]
Ki [1]: 3.98 nM | Ki [2]: 1.58 nM | Ki [3]: 1.26 nM

COC[C@@]12CNCC[C@]1(c1ccc(OC(F)(F)F)cc1)C2 (racemic)
Ki [1]: 3160 nM | Ki [2]: 7940 nM | Ki [3]: 3.16 nM

COC[C@H]1[C@@H]2CNCC[C@@]21c1ccc(Cl)c(Cl)c1 (racemic)
Ki [1]: 2000 nM | Ki [2]: 1260 nM | Ki [3]: 50.1 nM

COC[C@@H]1[C@@H]2CCNC[C@]12c1ccc(Cl)c(Cl)c1 (racemic)
Ki [1]: 63.1 nM | Ki [2]: 126 nM | Ki [3]: 31.6 nM

COC[C@@]12CNC[C@H](OC)[C@]1(c1ccc(Cl)c(Cl)c1)C2 (racemic)
Ki [1]: 1260 nM | Ki [2]: 501 nM | Ki [3]: 100 nM

COC[C@@]12CNC[C@@H](OC)[C@]1(c1ccc(Cl)c(Cl)c1)C2 (racemic)
Ki [1]: 1580 nM | Ki [2]: 398 nM | Ki [3]: 251 nM

COC[C@@H]1[C@@H]2CNCC[C@]12c1ccc(Cl)c(Cl)c1 (racemic)
Ki [1]: 316 nM | Ki [2]: 398 nM | Ki [3]: 10 nM

COC[C@@]12CNCC[C@]1(c1ccc(Cl)cc1)C2 (racemic)
Ki [1]: 200 nM | Ki [2]: 251 nM | Ki [3]: 15.8 nM

COC[C@@]12CNCC[C@]1(c1ccc(F)c(Cl)c1)C2 (racemic)
Ki [1]: 316 nM | Ki [2]: 158 nM | Ki [3]: 1.58 nM

COC[C@@]12CNCC[C@]1(c1ccc(Cl)c(C(F)(F)F)c1)C2 (racemic)
Ki [1]: 200 nM | Ki [2]: 3160 nM | Ki [3]: 15.8 nM

COC[C@@]12CNCC[C@]1(c1ccc(C(F)(F)F)c(Cl)c1)C2 (racemic)
Ki [1]: 126 nM | Ki [2]: 1580 nM | Ki [3]: 15.8 nM

COC[C@@]12CN[C@@H](C)C[C@]1(c1ccc(Cl)c(Cl)c1)C2 (racemic)
Ki [1]: 50.1 nM | Ki [2]: 39.8 nM | Ki [3]: 7.94 nM

COC[C@@]12CNC[C@H](F)[C@]1(c1ccc(Cl)c(Cl)c1)C2 (racemic)
Ki [1]: 100 nM | Ki [2]: 100 nM | Ki [3]: 5.01 nM

COC[C@@]12CNC[C@@H](F)[C@]1(c1ccc(Cl)c(Cl)c1)C2 (racemic)
Ki [1]: 50.1 nM | Ki [2]: 100 nM | Ki [3]: 3.98 nM

FC(F)(F)COC[C@@]12CNCC[C@]1(c1ccc(Cl)c(Cl)c1)C2 (racemic)
Ki [1]: 79.4 nM | Ki [2]: 39.8 nM | Ki [3]: 6.31 nM

CCOC(=O)[C@@]12CNCC[C@]1(c1ccc(Cl)c(Cl)c1)C2 (racemic)
Ki [1]: 7.94 nM | Ki [2]: 5.01 nM | Ki [3]: 15.8 nM

NC(=O)[C@@]12CNCC[C@]1(c1ccc(Cl)c(Cl)c1)C2 (racemic)
Ki [1]: 794 nM | Ki [2]: 251 nM | Ki [3]: 100 nM

CC#CNC(=O)[C@@]12CNCC[C@]1(c1ccc(Cl)c(Cl)c1)C2 (racemic)
Ki [1]: 501 nM | Ki [2]: 158 nM | Ki [3]: 100 nM

Clc1ccc([C@]23CCNC[C@@]2(COCC2CC2)C3)cc1Cl (racemic) [1-((CYCLOPROPYLMETHOXY)METHYL)-6-(3,4-DICHLOROPHENYL)-3-AZABICYCLO[4.1.0]HEPTANE (ENANTIOMERIC MIX)]
Ki [1]: 50.1 nM | Ki [2]: 12.6 nM | Ki [3]: 1.26 nM

COC[C@@]12CNCC[C@]1(c1ccc3ccccc3c1)C2 (racemic) [1-(METHOXYMETHYL)-6-(NAPHTHALEN-2-YL)-3-AZABICYCLO[4.1.0]HEPTANE (ENANTIOMERIC MIX)]
Ki [1]: 12.6 nM | Ki [2]: 31.6 nM | Ki [3]: 0.316 nM

Clc1ccc([C@]23CNCC[C@H]2C3)cc1Cl (racemic) [1-PHENYL-3-AZABICYCLO[4.1.0]HEPTANE (STRUCTURAL MIX)]
Ki [1]: 158 nM | Ki [2]: 79.4 nM | Ki [3]: 126 nM

CCOC[C@@]12CNCC[C@]1(c1ccc(Cl)c(Cl)c1)C2 (racemic) [6-(3,4-DICHLOROPHENYL)-1-[(ETHYLOXY)METHYL]-3-AZABICYCLO[4.1.0]-HEPTANE (ENANTIOMERIC MIX)]
Ki [1]: 10 nM | Ki [2]: 6.31 nM | Ki [3]: 1.26 nM

Clc1ccc([C@@]23CCNC[C@@H]2C3)cc1Cl (racemic) [RAC-1-(3,4-DICHLO ROPHENYL)-3-AZABICYCLO[4.1.0]HEPTANE (ENANTIOMERS)]
Ki [1]: 251 nM | Ki [2]: 50.1 nM | Ki [3]: 25.1 nM

OC[C@@]12CNCC[C@]1(c1ccc(Cl)c(Cl)c1)C2 (racemic) [RAC-1-(3,4-DICHLOROPHENYL)-3-AZABICYCLO[4.1.0]HEPTAN-6-YL)METHANOL (STRUCTURAL MIX)]
Ki [1]: 158 nM | Ki [2]: 200 nM | Ki [3]: 20 nM

CC(=O)[C@@]12CNCC[C@]1(c1ccc(Cl)c(Cl)c1)C2 (relative stereo)
Ki [1]: 15.8 nM | Ki [2]: 3.98 nM | Ki [3]: 1 nM

Clc1ccc([C@@]23CCNC[C@@H]2C3)cc1Cl (relative stereo) [RAC-1-(3,4-DICHLO ROPHENYL)-3-AZABICYCLO[4.1.0]HEPTANE (ENANTIOMERS)]
Ki [1]: 251 nM | Ki [2]: 50.1 nM | Ki [3]: 39.8 nM

COC[C@@]12CCNC[C@]1(c1ccc(Cl)c(Cl)c1)C2 (relative stereo) [RAC-1-(3,4-DICHLOROPHENYL)-6-(METHOXYMETHYL)-2-AZABICYCLO[4.1.0]HEPTANE (ENANTIOMERS)]
Ki [1]: 100 nM | Ki [2]: 63.1 nM | Ki [3]: 12.6 nM

Clc1ccc([C@]23CNCC[C@H]2C3)cc1Cl (relative stereo; 4) [1-PHENYL-3-AZABICYCLO[4.1.0]HEPTANE (STRUCTURAL MIX)]
Ki [1]: 63.1 nM | Ki [2]: 39.8 nM | Ki [3]: 79.4 nM

Clc1ccc([C@]23CNCC[C@H]2C3)cc1Cl (relative stereo; 5) [1-PHENYL-3-AZABICYCLO[4.1.0]HEPTANE (STRUCTURAL MIX)]
Ki [1]: 398 nM | Ki [2]: 100 nM | Ki [3]: 251 nM

OC[C@@]12CNCC[C@]1(c1ccc(Cl)c(Cl)c1)C2 (relative stereo; 14) [RAC-1-(3,4-DICHLOROPHENYL)-3-AZABICYCLO[4.1.0]HEPTAN-6-YL)METHANOL (STRUCTURAL MIX)]
Ki [1]: 398 nM | Ki [2]: 100 nM | Ki [3]: 39.8 nM

OC[C@@]12CNCC[C@]1(c1ccc(Cl)c(Cl)c1)C2 (relative stereo; 15) [RAC-1-(3,4-DICHLOROPHENYL)-3-AZABICYCLO[4.1.0]HEPTAN-6-YL)METHANOL (STRUCTURAL MIX)]
Ki [1]: 100 nM | Ki [2]: 79.4 nM | Ki [3]: 7.94 nM

CCOC[C@@]12CNCC[C@]1(c1ccc(Cl)c(Cl)c1)C2 (relative stereo; 30) [6-(3,4-DICHLOROPHENYL)-1-[(ETHYLOXY)METHYL]-3-AZABICYCLO[4.1.0]-HEPTANE (ENANTIOMERIC MIX)]
Ki [1]: 100 nM | Ki [2]: 63.1 nM | Ki [3]: 10 nM

CCOC[C@@]12CNCC[C@]1(c1ccc(Cl)c(Cl)c1)C2 (relative stereo; 31) [6-(3,4-DICHLOROPHENYL)-1-[(ETHYLOXY)METHYL]-3-AZABICYCLO[4.1.0]-HEPTANE (ENANTIOMERIC MIX)]
Ki [1]: 7.94 nM | Ki [2]: 3.98 nM | Ki [3]: 1 nM

Clc1ccc([C@]23CCNC[C@@]2(COCC2CC2)C3)cc1Cl (relative stereo; 34) [1-((CYCLOPROPYLMETHOXY)METHYL)-6-(3,4-DICHLOROPHENYL)-3-AZABICYCLO[4.1.0]HEPTANE (ENANTIOMERIC MIX)]
Ki [1]: 20 nM | Ki [2]: 3.16 nM | Ki [3]: 0.398 nM

Clc1ccc([C@]23CCNC[C@@]2(COCC2CC2)C3)cc1Cl (relative stereo; 35) [1-((CYCLOPROPYLMETHOXY)METHYL)-6-(3,4-DICHLOROPHENYL)-3-AZABICYCLO[4.1.0]HEPTANE (ENANTIOMERIC MIX)]
Ki [1]: 126 nM | Ki [2]: 63.1 nM | Ki [3]: 3.98 nM

Clc1ccc([C@@]23CCNC[C@@H]2C3)cc1Cl (single isomer, unassigned) [RAC-1-(3,4-DICHLO ROPHENYL)-3-AZABICYCLO[4.1.0]HEPTANE (ENANTIOMERS)]
Ki [1]: 100 nM | Ki [2]: 25.1 nM | Ki [3]: 12.6 nM

COC[C@@]12CCNC[C@]1(c1ccc(Cl)c(Cl)c1)C2 (single isomer, unassigned) [RAC-1-(3,4-DICHLOROPHENYL)-6-(METHOXYMETHYL)-2-AZABICYCLO[4.1.0]HEPTANE (ENANTIOMERS)]
Ki [1]: 1000 nM | Ki [2]: 631 nM | Ki [3]: 158 nM

COC[C@@]12CNCC[C@]1(c1ccc3ccccc3c1)C2 (single isomer, unassigned; 27) [1-(METHOXYMETHYL)-6-(NAPHTHALEN-2-YL)-3-AZABICYCLO[4.1.0]HEPTANE (ENANTIOMERIC MIX)]
Ki [1]: 39.8 nM | Ki [2]: 100 nM | Ki [3]: 1 nM

Clc1ccc([C@]23CCN4CC[C@]2(C4)C3)cc1Cl (single isomer, unassigned; 49) [3-(3,4-DICHLORO-PHENYL)-6-AZA-TRICYCLO[4.2.1.0*1,3*]NONANE (STRUCTURAL MIX)]
Ki [1]: 63.1 nM | Ki [2]: 79.4 nM | Ki [3]: 1.58 nM

Clc1ccc([C@]23CCN4CC[C@]2(C4)C3)cc1Cl (single isomer, unassigned; 50) [3-(3,4-DICHLORO-PHENYL)-6-AZA-TRICYCLO[4.2.1.0*1,3*]NONANE (STRUCTURAL MIX)]
Ki [1]: 794 nM | Ki [2]: 251 nM | Ki [3]: 31.6 nM
